In US7138361B2, “Herbicidal heterocycles” (E. I. du Pont de Nemours and Company, priority 2000, dated 2006):

Columns and labels:
Format in all cases: in vivo
[1] = tested on: Surinam grass (Brachiaria decumbens); assay: Test B postemergence; conditions: 13 to 15 days
Outline: (§1)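 Post-treatment, species sat 13–15 days under greenhouse conditions before visual scoring against controls, 0 (no effect) through 100 (complete control). Application preemergence to sown seeds or postemergence at 1- to 4-leaf stage, using a non-phytotoxic solvent/surfactant formulation.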

[2] = tested on: barnyardgrass (Echinochloa crus-galli); assay: Test B postemergence; conditions: 13 to 15 days
Outline: as §1

[3] = tested on: blackgrass (Alopecurus myosuroides); assay: Test B postemergence; conditions: 13 to 15 days
Outline: as §1

[4] = tested on: cocklebur (Xanthium strumarium); assay: Test B postemergence; conditions: 13 to 15 days
Outline: as §1

corn (Zea mays) = assay: Test B postemergence; conditions: 13 to 15 days
Outline: as §1

[5] = tested on: crabgrass (Digitaria sanguinalis); assay: Test B postemergence; conditions: 13 to 15 days
Outline: as §1

[6] = tested on: giant foxtail (Setaria faberii); assay: Test B postemergence; conditions: 13 to 15 days
Outline: as §1

[7] = tested on: lambsquarters (Chenopodium album); assay: Test B postemergence; conditions: 13 to 15 days
Outline: as §1

[8] = tested on: morning glory (Ipomoea hederacea); assay: Test B postemergence; conditions: 13 to 15 days
Outline: as §1

[9] = tested on: pigweed (Amaranthus retroflexus); assay: Test B postemergence; conditions: 13 to 15 days
Outline: as §1

[10] = tested on: velvetleaf (Abutilon theophrasti); assay: Test B postemergence; conditions: 13 to 15 days
Outline: as §1

[11] = tested on: wheat (Triticum aestivum); assay: Test B postemergence; conditions: 13 to 15 days
Outline: as §1

wild oat (Avena fatua) = assay: Test B postemergence; conditions: 13 to 15 days
Outline: as §1

[12] = tested on: Surinam grass (Brachiaria decumbens); assay: Test B preemergence
Outline: as §1

[13] = tested on: cocklebur (Xanthium strumarium); assay: Test B preemergence
Outline: as §1

[14] = tested on: crabgrass (Digitaria sanguinalis); assay: Test B preemergence
Outline: as §1

[15] = tested on: giant foxtail (Setaria faberii); assay: Test B preemergence
Outline: as §1

[16] = tested on: lambsquarters (Chenopodium album); assay: Test B preemergence
Outline: as §1

[17] = tested on: morning glory (Ipomoea hederacea); assay: Test B preemergence
Outline: as §1

[18] = tested on: pigweed (Amaranthus retroflexus); assay: Test B preemergence
Outline: as §1

rice (Oryza saliva) = assay: Test B preemergence
Outline: as §1

[19] = tested on: velvetleaf (Abutilon theophrasti); assay: Test B preemergence
Outline: as §1

[20] = tested on: smallflower flatsedge (Cyperus difformis); assay: Test C flooded paddy test; conditions: for Flatsedge plant response rating: Flooded Paddy, scale 0 to 100, 0 no effect, 100 complete control
Outline: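 Plants were grown to the 2-leaf stage under flooded paddy conditions and treated. They were then kept in a greenhouse for 12 to 14 days and visually rated against untreated controls on a 0–100 scale, where 0 is no effect and 100 is complete control.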

Nightshade = assay: Test C preemergence; conditions: Rate 500 g/ha, visual evaluation after 12 to 14 days
Sunflower = assay: Test C preemergence; conditions: Rate 500 g/ha, visual evaluation after 12 to 14 days
[21] = Rate 125 g/ha, scale 0 (no effect) to 100 (complete control)
[22] = Rate 500 g/ha, scale 0 to 100, 0 is no effect, 100 is complete control
[23] = Preemergence, Rate 500 g/ha, scale 0 to 100, 0 no effect, 100 complete control
[24] = preemergence, Rate 125 g/ha, scale of 0 to 100 where 0 is no effect and 100 is complete control, 13 to 15 days

CC(C)Oc1cccc(N2CCC(n3ccc(C(C)(C)C)n3)C2=O)c1 (stereo not shown) [Compound 70]
90: Plant response rating, Crabgrass [14, 24] | Plant response rating, Foxtail, Giant [15, 24] | Flatsedge plant response rating ([20]; Rate 250 g/ha) | Flatsedge plant response rating ([20]; Rate 500 g/ha) | Plant response rating, Flatsedge ([20]; flooded paddy test, Rate 62 g/ha, scale 0 to 100 (0 no effect, 100 complete control))
80: Plant response rating, Morningglory [17, 23]
70: Plant response rating (0 to 100), Nightshade (Nightshade)
60: Plant response rating (0 to 100), Sunflower (Sunflower)
20: Plant response rating, Morningglory [17, 24]
0: Plant response rating, Surinam grass [1, 21] | Plant response rating, Surinam grass [1, 22] | Plant response rating, Barnyardgrass [2, 21] | Plant response rating, Barnyardgrass [2, 22] | Plant response rating, Blackgrass [3, 21] | Plant response rating, Blackgrass [3, 22] | Plant response rating, Cocklebur [4, 21] | Plant response rating, Cocklebur [4, 22] | Plant response rating, Corn (corn (Zea mays); [21]) | Plant response rating, Corn (corn (Zea mays); [22]) | Plant response rating, Crabgrass [5, 21] | Plant response rating, Crabgrass [5, 22] | Plant response rating, Foxtail, Giant [6, 21] | Plant response rating, Foxtail, Giant [6, 22] | Plant response rating, Lambsquarters [7, 21] | Plant response rating, Lambsquarters [7, 22] | Plant response rating, Pigweed [9, 21] | Plant response rating, Pigweed [9, 22] | Plant response rating, Velvetleaf [10, 21] | Plant response rating, Velvetleaf [10, 22] | Plant response rating, Wheat [11, 21] | Plant response rating, Wheat [11, 22] | Plant response rating, Wild Oat (wild oat (Avena fatua); [21]) | Plant response rating, Wild Oat (wild oat (Avena fatua); [22]) | Plant response rating, Surinam grass [12, 23] | Plant response rating, Surinam grass [12, 24] | Plant response rating, Cocklebur [13, 23] | Plant response rating, Cocklebur [13, 24] | Plant response rating, Velvetleaf [19, 23] | Plant response rating, Velvetleaf [19, 24]
30: Plant response rating, Morningglory [8, 21] | Plant response rating, Morningglory [8, 22] | Plant response rating, Rice (rice (Oryza saliva); [23]) | Plant response rating, Rice (rice (Oryza saliva); [24])
100: Plant response rating, Crabgrass [14, 23] | Plant response rating, Foxtail, Giant [15, 23] | Plant response rating, Lambsquarters [16, 23] | Plant response rating, Lambsquarters [16, 24] | Plant response rating, Pigweed [18, 23] | Plant response rating, Pigweed [18, 24]
